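Protocol summary: plate cells (96-well), add compound at 5 concentrations, incubate 48 h, interpolate endpoints linearly. TGI denotes the concentration required for complete inhibition of growth.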
How the values were obtained:
Experiment in all cases: growth of human tumour cells (NCI), 48 h
[1] = test system: RPMI-8226 leukemia
[2] = test system: NCI/ADR-RES ovarian
[3] = test system: NCI-H226 lung
[4] = test system: PC-3 prostate
[5] = test system: UACC-257 melanoma
[6] = test system: K-562 leukemia
[7] = test system: EKVX NSCLC
[8] = test system: MDA-N
[9] = test system: T-47D breast
[10] = test system: ACHN renal
[11] = test system: OVCAR-8 ovarian
[12] = test system: HL-60(TB) leukemia
[13] = test system: SNB-19 CNS
[14] = test system: SW-620 colon
[15] = test system: RXF 393 renal
[16] = test system: SK-OV-3 ovarian
[17] = test system: NCI-H522 lung
[18] = test system: NCI-H460 lung
[19] = test system: MCF7 breast
[20] = test system: SF-295 CNS
[21] = test system: MDA-MB-435
[22] = test system: UO-31 renal
[23] = test system: 786-0 renal
[24] = test system: A549 NSCLC
[25] = test system: SNB-75 CNS
[26] = test system: MALME-3M melanoma
[27] = test system: SR leukemia
[28] = test system: U251 CNS
[29] = test system: CAKI-1 renal
[30] = test system: DU-145 prostate
[31] = test system: HCT-116 colon
[32] = test system: M14 melanoma
[33] = test system: MDA-MB-231 breast
[34] = test system: HS 578T breast
[35] = test system: HT29 colon
[36] = test system: HCT-15 colon
[37] = test system: KM12 colon
[38] = test system: COLO 205 colon
[39] = test system: SF-268 CNS
[40] = test system: IGROV1 ovarian
[41] = test system: SF-539 CNS
[42] = test system: SK-MEL-2 melanoma
[43] = test system: SK-MEL-5 melanoma
[44] = test system: CCRF-CEM leukemia
[45] = test system: OVCAR-5 ovarian
[46] = test system: HOP-92 NSCLC
[47] = test system: BT-549 breast
[48] = test system: UACC-62 melanoma
[49] = test system: MOLT-4 leukemia
[50] = test system: SN12C renal
[51] = test system: NCI-H23 lung
[52] = test system: SK-MEL-28 melanoma
[53] = test system: TK-10 renal
[54] = test system: HOP-62 NSCLC
[55] = test system: HCC-2998 colon
[56] = test system: A498 renal
[57] = test system: LOX IMVI melanoma
[58] = test system: OVCAR-4 ovarian
[59] = test system: OVCAR-3 ovarian

CC(NC(=O)C(C)C(=O)NCc1ccc(C(F)(F)F)cc1)C(N)=O (configuration not stated)
TGI [1]: > 100 µM
TGI [2]: > 100 µM
TGI [3]: > 100 µM
TGI [4]: > 100 µM
TGI [5]: > 100 µM
TGI [6]: > 100 µM
TGI [7]: > 100 µM
TGI [8]: > 100 µM
TGI [9]: > 100 µM
TGI [10]: > 100 µM
TGI [11]: > 100 µM
TGI [12]: > 100 µM
TGI [13]: > 100 µM
TGI [14]: > 100 µM
TGI [15]: > 100 µM
TGI [16]: > 100 µM
TGI [17]: > 100 µM
TGI [18]: > 100 µM
TGI [19]: > 100 µM
TGI [20]: > 100 µM
TGI [21]: > 100 µM
TGI [22]: > 100 µM
TGI [23]: > 100 µM
TGI [24]: > 100 µM
TGI [25]: > 100 µM
TGI [26]: > 100 µM
TGI [27]: > 100 µM
TGI [28]: > 100 µM
TGI [29]: > 100 µM
TGI [30]: > 100 µM
TGI [31]: > 100 µM
TGI [32]: > 100 µM
TGI [33]: > 100 µM
TGI [34]: > 100 µM
TGI [35]: > 100 µM
TGI [36]: > 100 µM
TGI [37]: > 100 µM
TGI [38]: > 100 µM
TGI [39]: > 100 µM
TGI [40]: > 100 µM
TGI [41]: > 100 µM
TGI [42]: > 100 µM
TGI [43]: > 100 µM
TGI [44]: > 100 µM
TGI [45]: > 100 µM
TGI [46]: > 100 µM
TGI [47]: > 100 µM
TGI [48]: > 100 µM
TGI [49]: > 100 µM
TGI [50]: > 100 µM
TGI [51]: > 100 µM

COc1cc2c3c(cc(Cl)nc3c1OC)C(O)(CC(C)=O)C(=O)N2 (configuration not stated)
TGI [1]: > 78.6 µM
TGI [2]: > 63.9 µM
TGI [3]: > 57.3 µM
TGI [52]: > 60.7 µM
TGI [53]: 37.3 µM
TGI [4]: > 56.4 µM
TGI [5]: 21.5 µM
TGI [6]: > 95 µM
TGI [7]: 30.9 µM
TGI [8]: 31.1 µM
TGI [54]: > 59.8 µM
TGI [9]: > 100 µM
TGI [10]: > 54 µM
TGI [11]: 36.2 µM
TGI [12]: 24.1 µM
TGI [13]: > 54.7 µM
TGI [14]: > 71 µM
TGI [15]: 30.7 µM
TGI [55]: > 60.5 µM
TGI [16]: > 72.8 µM
TGI [56]: 33.2 µM
TGI [17]: 26 µM
TGI [18]: > 89.6 µM
TGI [19]: 35.9 µM
TGI [20]: > 100 µM
TGI [21]: 30.9 µM
TGI [22]: > 55.6 µM
TGI [23]: 30.9 µM
TGI [24]: > 62.3 µM
TGI [25]: > 55.9 µM
TGI [26]: 29.8 µM
TGI [27]: > 66.9 µM
TGI [28]: > 100 µM
TGI [29]: 37.7 µM
TGI [30]: > 53.6 µM
TGI [31]: 31.3 µM
TGI [32]: 36.5 µM
TGI [57]: 34.8 µM
TGI [33]: 33 µM
TGI [34]: > 100 µM
TGI [35]: > 61.9 µM
TGI [36]: > 62.5 µM
TGI [58]: 32.4 µM
TGI [37]: > 61.6 µM
TGI [38]: > 100 µM
TGI [39]: 18 µM
TGI [40]: 36.6 µM
TGI [59]: > 100 µM
TGI [41]: > 100 µM
TGI [42]: 45.7 µM
TGI [43]: > 56 µM
TGI [44]: > 45.4 µM
TGI [45]: > 56.4 µM
TGI [46]: 34.3 µM
TGI [47]: 30.8 µM
TGI [48]: 31.5 µM
TGI [49]: > 34.5 µM
TGI [50]: 36.1 µM
TGI [51]: > 60.8 µM

CC1(C)Oc2ccc(Cl)cc2C12CC2
TGI [1]: > 100 µM
TGI [2]: 44 µM
TGI [3]: 32.2 µM
TGI [52]: 41.7 µM
TGI [53]: 40.7 µM
TGI [4]: 27.9 µM
TGI [5]: 30.1 µM
TGI [6]: 39.2 µM
TGI [7]: 37.9 µM
TGI [8]: 35.9 µM
TGI [54]: 37.7 µM
TGI [9]: 73.8 µM
TGI [10]: 30.1 µM
TGI [11]: 28.4 µM
TGI [12]: 40.3 µM
TGI [13]: 31.5 µM
TGI [14]: 30.9 µM
TGI [15]: 30.2 µM
TGI [55]: 30.6 µM
TGI [16]: 44.7 µM
TGI [56]: 29.9 µM
TGI [18]: 39.7 µM
TGI [19]: 33.3 µM
TGI [20]: 27 µM
TGI [21]: 32.6 µM
TGI [22]: 30.8 µM
TGI [23]: 31.3 µM
TGI [24]: 48.4 µM
TGI [25]: 32.3 µM
TGI [26]: 43.2 µM
TGI [27]: 36.4 µM
TGI [28]: 29.4 µM
TGI [29]: 31.2 µM
TGI [30]: 29.5 µM
TGI [31]: 29 µM
TGI [32]: 35.5 µM
TGI [57]: 30.9 µM
TGI [33]: 47.6 µM
TGI [34]: 44.8 µM
TGI [35]: 34.7 µM
TGI [36]: 33 µM
TGI [58]: 29.6 µM
TGI [37]: 53.1 µM
TGI [38]: 32.9 µM
TGI [39]: 31.6 µM
TGI [40]: 28.7 µM
TGI [59]: 26.7 µM
TGI [41]: > 100 µM
TGI [42]: 33.4 µM
TGI [43]: 38.6 µM
TGI [44]: > 100 µM
TGI [45]: 34.2 µM
TGI [47]: 68.5 µM
TGI [48]: > 100 µM
TGI [49]: 44.1 µM
TGI [50]: 33.6 µM
TGI [51]: 59 µM

Cc1ccc([N+](=O)[O-])cc1S(=O)(=O)Nc1ccc(C2=NN(c3ccc([N+](=O)[O-])cc3[N+](=O)[O-])C(c3ccccc3O)C2)cc1 (configuration not stated)
TGI [1]: > 100 µM
TGI [2]: > 100 µM
TGI [3]: > 100 µM
TGI [52]: > 100 µM
TGI [53]: > 100 µM
TGI [4]: > 100 µM
TGI [5]: 82.7 µM
TGI [6]: > 100 µM
TGI [7]: 90.6 µM
TGI [8]: > 100 µM
TGI [54]: > 100 µM
TGI [9]: > 100 µM
TGI [10]: > 100 µM
TGI [11]: > 100 µM
TGI [12]: > 100 µM
TGI [13]: > 100 µM
TGI [14]: > 100 µM
TGI [15]: > 100 µM
TGI [16]: > 100 µM
TGI [17]: 83.1 µM
TGI [19]: > 100 µM
TGI [20]: > 100 µM
TGI [21]: > 100 µM
TGI [22]: > 100 µM
TGI [23]: > 100 µM
TGI [24]: > 100 µM
TGI [25]: > 100 µM
TGI [26]: > 100 µM
TGI [27]: > 100 µM
TGI [28]: > 100 µM
TGI [29]: > 100 µM
TGI [30]: > 100 µM
TGI [31]: > 100 µM
TGI [32]: > 100 µM
TGI [57]: > 100 µM
TGI [33]: 86.6 µM
TGI [34]: > 100 µM
TGI [35]: > 100 µM
TGI [36]: > 100 µM
TGI [58]: > 100 µM
TGI [37]: > 100 µM
TGI [38]: > 100 µM
TGI [39]: > 100 µM
TGI [40]: > 100 µM
TGI [59]: 61.3 µM
TGI [41]: > 100 µM
TGI [42]: 59.4 µM
TGI [43]: 61.1 µM
TGI [44]: > 100 µM
TGI [45]: > 100 µM
TGI [46]: > 100 µM
TGI [47]: > 100 µM
TGI [49]: > 100 µM
TGI [50]: 54 µM
TGI [51]: 59.7 µM
